The text below walks through data of PubChem BioAssay AID330 (DTP/NCI, 2004).

Several values for one entry are separate records, joined by “and”; a condition that tells them apart may be missing. Identical values can stand only once. Inconclusive results and toxic doses are left out.

This assay deals with P388 leukemia ip, CD2F1 mice, survival T/C. The assay can be described thus: NCI In Vivo Anticancer Drug Screen. Data for tumor model P388 Leukemia (intraperitoneal) in CD2F1 (CDF1) mice. The conditions noted are these: endpoint: median survival time, higher = longer survival. In a few lines: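 Mice carrying the transplanted tumor received test compound or vehicle. Survival was recorded in each group, and the value is the treated-group measurement divided by that of the vehicle-treated control group.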

[1] abbreviates: dose: 5.0 mg/kg/injection, schedule: Q04DX003 (ip), vehicle: saline with Tween-80.
The mark [2] stands for this setting: dose: 10.0 mg/kg/injection, schedule: Q04DX003 (ip), vehicle: saline with Tween-80.
[3] abbreviates: dose: 50.0 mg/kg/injection, schedule: Q01DX009 (ip), vehicle: saline.
Where [4] appears, read: dose: 100.0 mg/kg/injection, schedule: Q01DX009 (ip), vehicle: saline.
Setting [5] is: dose: 200.0 mg/kg/injection, schedule: Q01DX009 (ip), vehicle: saline.
The mark [6] stands for this setting: dose: 50.0 mg/kg/injection, schedule: Q01DX009 (ip), vehicle: saline with Tween-80.
The mark [7] stands for this setting: dose: 100.0 mg/kg/injection, schedule: Q01DX009 (ip), vehicle: saline with Tween-80.
The mark [8] stands for this setting: dose: 200.0 mg/kg/injection, schedule: Q01DX009 (ip), vehicle: saline with Tween-80.
The mark [9] stands for this setting: dose: 25.0 mg/kg/injection, schedule: Q01DX009 (ip), vehicle: saline with Tween-80.
Setting [10] is: dose: 100.0 mg/kg/injection, schedule: Q04DX002 (ip), vehicle: saline with Tween-80.
The mark [11] stands for this setting: dose: 200.0 mg/kg/injection, schedule: Q04DX002 (ip), vehicle: saline with Tween-80.
Where [12] appears, read: dose: 400.0 mg/kg/injection, schedule: Q04DX002 (ip), vehicle: saline with Tween-80.
[13] abbreviates: dose: 50.0 mg/kg/injection, schedule: Q01DX005 (ip), vehicle: Klucel (hydroxypropylcellulose) (HPC).
The mark [14] stands for this setting: dose: 100.0 mg/kg/injection, schedule: Q01DX005 (ip), vehicle: Klucel (hydroxypropylcellulose) (HPC).
[15] abbreviates: dose: 200.0 mg/kg/injection, schedule: Q01DX005 (ip), vehicle: Klucel (hydroxypropylcellulose) (HPC).

Regarding `CCN(CC)CCN1c2ccccc2Sc2c1ccc1ccccc21`, the T/C (dose: 50.0 mg/kg/injection, schedule: Q01DX005 (ip), vehicle: saline + Tween-80 + alcohol) was 112 % of control; the T/C (dose: 100.0 mg/kg/injection, schedule: Q01DX005 (ip), vehicle: saline + Tween-80 + alcohol) is 107 % of control; the T/C (dose: 200.0 mg/kg/injection, schedule: Q01DX005 (ip), vehicle: saline + Tween-80 + alcohol) is 107 % of control.

On to `Cc1ccccc1C[P+](c1ccccc1)(c1ccccc1)c1ccccc1`, for which the T/C was 95 % of control (dose: 0.62 mg/kg/injection, schedule: Q01DX009 (ip), vehicle: saline with Tween-80); 100 % of control (dose: 1.25 mg/kg/injection, schedule: Q01DX009 (ip), vehicle: saline with Tween-80); 104 % of control (dose: 2.5 mg/kg/injection, schedule: Q01DX009 (ip), vehicle: saline with Tween-80); 117 % of control (dose: 5.0 mg/kg/injection, schedule: Q01DX009 (ip), vehicle: saline with Tween-80); 100 % of control under setting [1]; 95 % of control (dose: 10.0 mg/kg/injection, schedule: Q01DX009 (ip), vehicle: saline with Tween-80). Also, the T/C under setting [2] was 87 % of control.

Consider `CNCS(=O)(=O)O`, for which the T/C is 106 % of control under setting [3], 101 % of control under setting [4] and 93 % of control under setting [5].

As to `Nc1ccc2c(c1)Oc1ccc(N)cc1O2`, the T/C (dose: 60.0 mg/kg/injection, schedule: Q01DX005 (ip), vehicle: saline with Tween-80) is 102 % of control; the T/C (dose: 120.0 mg/kg/injection, schedule: Q01DX005 (ip), vehicle: saline with Tween-80) is 100 % of control; the T/C (dose: 240.0 mg/kg/injection, schedule: Q01DX005 (ip), vehicle: saline with Tween-80) was 106 % of control.

`Cc1ocnc1Cc1ccc(O)c(O)c1`: the T/C reads like this: (dose: 100.0 mg/kg/injection, schedule: Q01DX001 (ip), vehicle: saline) 101 % of control; (dose: 200.0 mg/kg/injection, schedule: Q01DX001 (ip), vehicle: saline) 96 % of control; (dose: 400.0 mg/kg/injection, schedule: Q01DX001 (ip), vehicle: saline) 98 % of control.

`CCN(CC)CCSCCCNc1cc(OC)cc2cccnc12`: the T/C runs as follows: (dose: 12.5 mg/kg/injection, schedule: Q01DX005 (ip), vehicle: saline) 93 % of control; (dose: 25.0 mg/kg/injection, schedule: Q01DX005 (ip), vehicle: saline) 88 % of control; (dose: 50.0 mg/kg/injection, schedule: Q01DX005 (ip), vehicle: saline) 95 % of control and 98 % of control.

In the case of `CCN(CC)c1cc(-c2ccccc2)oc(=O)c1Cl`, the T/C is 100 % of control under setting [6], 93 % of control under setting [7] and 97 % of control under setting [8].

For the molecule `OC(c1cc2cc(Br)ccc2c2cc(Br)ccc12)C1CCCCN1` (stereo not given), the T/C was 107 % of control (dose: 6.25 mg/kg/injection, schedule: Q01DX009 (ip), vehicle: saline with Tween-80); 109 % of control (dose: 12.5 mg/kg/injection, schedule: Q01DX009 (ip), vehicle: saline with Tween-80); 101 % of control under setting [9].

Regarding `O=C1NCCN=C1Cc1ccccc1`, the T/C was 93 % of control under setting [10], 100 % of control under setting [11] and 95 % of control under setting [12].

`O=C(NC[N+]12CCO[B-]1(c1ccc(Cl)cc1)OCC2)c1ccccc1O` (stereo not given): the T/C runs as follows: under setting [13], 106 % of control; under setting [14], 98 % of control; under setting [15], 103 % of control.

Regarding `CNC(=O)Nc1nc2ccccc2[nH]1`, the T/C runs as follows: (dose: 20.0 mg/kg/injection, schedule: Q04DX003 (ip), vehicle: other) 100 % of control; (dose: 20.0 mg/kg/injection, schedule: Q04DX003 (oral), vehicle: other) 100 % of control; (dose: 40.0 mg/kg/injection, schedule: Q04DX003 (ip), vehicle: other) 95 % of control; (dose: 40.0 mg/kg/injection, schedule: Q04DX003 (oral), vehicle: other) 100 % of control; (dose: 50.0 mg/kg/injection, schedule: Q04DX003 (ip), vehicle: Klucel (hydroxypropylcellulose) (HPC)) 100 % of control (2×) and 109 % of control; (dose: 80.0 mg/kg/injection, schedule: Q04DX003 (ip), vehicle: other) 102 % of control. Further, the T/C was 100 % of control (dose: 80.0 mg/kg/injection, schedule: Q04DX003 (oral), vehicle: other); 105 % of control and 111 % of control and 116 % of control (dose: 100.0 mg/kg/injection, schedule: Q04DX003 (ip), vehicle: Klucel (hydroxypropylcellulose) (HPC)); 111 % of control (dose: 160.0 mg/kg/injection, schedule: Q04DX003 (ip), vehicle: other); 104 % of control (dose: 160.0 mg/kg/injection, schedule: Q04DX003 (oral), vehicle: other); 112 % of control and 118 % of control (dose: 200.0 mg/kg/injection, schedule: Q04DX003 (ip), vehicle: Klucel (hydroxypropylcellulose) (HPC)); 119 % of control (dose: 320.0 mg/kg/injection, schedule: Q04DX003 (ip), vehicle: other). For the same molecule, the T/C is 102 % of control (dose: 320.0 mg/kg/injection, schedule: Q04DX003 (oral), vehicle: other); 109 % of control and 121 % of control (dose: 400.0 mg/kg/injection, schedule: Q04DX003 (ip), vehicle: Klucel (hydroxypropylcellulose) (HPC)); 154 % of control (dose: 640.0 mg/kg/injection, schedule: Q04DX003 (ip), vehicle: other); 109 % of control (dose: 640.0 mg/kg/injection, schedule: Q04DX003 (oral), vehicle: other).

Turning to `O=[N+]([O-])c1ccc(CSC(=S)Nc2ccc(Cl)c(Cl)c2)cc1`, the T/C runs as follows: under setting [9], 106 % of control; (dose: 25.0 mg/kg/injection, schedule: Q01DX009 (ip), vehicle: saline) 109 % of control; under setting [6], 114 % of control; under setting [3], 107 % of control; (dose: 50.0 mg/kg/injection, schedule: Q01DX009 (ip), vehicle: suspension in saline) 103 % of control; under setting [7], 115 % of control. In addition, the T/C was 109 % of control under setting [4]; 113 % of control (dose: 100.0 mg/kg/injection, schedule: Q01DX009 (ip), vehicle: suspension in saline); 97 % of control under setting [8]; 116 % of control under setting [5]; 115 % of control (dose: 200.0 mg/kg/injection, schedule: Q01DX009 (ip), vehicle: suspension in saline).

For `N#CCc1cccc2c(=O)cc(-c3ccccc3)oc12`, the T/C is 106 % of control under setting [13], 96 % of control under setting [14] and 87 % of control under setting [15].

As for `CC(N)(CCS(=O)CP(=O)(O)O)C(=O)O` (stereo not given), the T/C (dose: 60.0 mg/kg/injection, schedule: Q01DX005 (ip), vehicle: saline) was 100 % of control and the T/C (dose: 120.0 mg/kg/injection, schedule: Q01DX005 (ip), vehicle: saline) is 94 % of control.

As for `CN(Cc1cnc2nc(N)nc(N)c2n1)c1ccc(C(=O)NC(CCC(=O)O)C(=O)O)cc1Br` (stereo not given), the T/C runs as follows: (dose: 0.62 mg/kg/injection, schedule: Q01DX009 (ip), vehicle: saline sonified) 209 % of control; (dose: 1.25 mg/kg/injection, schedule: Q01DX009 (ip), vehicle: saline sonified) 236 % of control; (dose: 2.5 mg/kg/injection, schedule: Q01DX009 (ip), vehicle: saline sonified) 245 % of control; under setting [1], 200 % of control; (dose: 6.6 mg/kg/injection, schedule: Q04DX003 (ip), vehicle: saline with Tween-80) 166 % of control; under setting [2], 166 % of control and 200 % of control.

`CC(COC(=O)c1cccc([N+](=O)[O-])c1C(=O)O)c1ccccc1` (stereo not given): the T/C is, setting by setting: under setting [10], 98 % of control; under setting [11], 109 % of control; under setting [12], 110 % of control.
